# According to PubChem BioAssay AID1845209 (Molecular Pharmacology Branch, DTP, NCI, 2023):
# System: NCI-H211 tumor spheroids, viability percent test/control
# Experiment: Anticancer human tumor NCI-H211 cell line growth inhibition;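 note: spheroids exposed to agents for seven days before readout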
# Details: spheroids with HUVEC and MSC; for IC50: curve of first compound; for viability, T/C: stronger effect = lower value
# Method in brief: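 Complex tumor spheroids combined malignant cells with endothelial cells and mesenchymal stem cells. DNA-damaging drugs and DNA repair inhibitors were tested alone and in combination, at half-log dilutions down from clinical Cmax (top 10 microM if Cmax unknown), 0.25% DMSO final.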
# [1] = second compound 0.003 µM, first compound 0.0316 µM
# [2] = second compound 0.003 µM, first compound 0.1 µM
# [3] = second compound 0.003 µM, first compound 0.316 µM
# [4] = second compound 0.003 µM, first compound 1 µM
# [5] = second compound 0.003 µM, first compound 3.16 µM
# [6] = second compound 0.003 µM, first compound 10 µM
smiles,measurement,setting,value
[2H]c1nc(C)nc([2H])c1-c1cc(NC[C@@H](C)c2cccc3c(C(=O)NC)ccnc23)ncn1 + COc1cc2c(cc1O)CCNC21CSC2c3c(OC(C)=O)c(C)c4c(c3C(COC1=O)N1C(O)C3Cc5cc(C)c(OC)c(O)c5C(C21)N3C)OCO4,IC50,second compound 30 pM,> 10000 nM
same,IC50,second compound 94.9 pM,< 31.6 nM
same,IC50,second compound 0.0003 µM,< 31.6 nM
same,IC50,second compound 0.000949 µM,< 31.6 nM
same,IC50,second compound 0.003 µM,< 31.6 nM
same,"viability, T/C","second compound 30 pM, first compound 0.0316 µM",103%
same,"viability, T/C","second compound 30 pM, first compound 0.1 µM",104%
same,"viability, T/C","second compound 30 pM, first compound 0.316 µM",100%
same,"viability, T/C","second compound 30 pM, first compound 1 µM",99.6%
same,"viability, T/C","second compound 30 pM, first compound 3.16 µM",102%
same,"viability, T/C","second compound 30 pM, first compound 10 µM",78.2%
same,"viability, T/C","second compound 94.9 pM, first compound 0.0316 µM",16.1%
same,"viability, T/C","second compound 94.9 pM, first compound 0.1 µM",15.9%
same,"viability, T/C","second compound 94.9 pM, first compound 0.316 µM",19.4%
same,"viability, T/C","second compound 94.9 pM, first compound 1 µM",17.4%
same,"viability, T/C","second compound 94.9 pM, first compound 3.16 µM",7.6%
same,"viability, T/C","second compound 94.9 pM, first compound 10 µM",3.55%
same,"viability, T/C","second compound 0.0003 µM, first compound 0.0316 µM",0.71%
same,"viability, T/C","second compound 0.0003 µM, first compound 0.1 µM",0.97%
same,"viability, T/C","second compound 0.0003 µM, first compound 0.316 µM",0.84%
same,"viability, T/C","second compound 0.0003 µM, first compound 1 µM",0.85%
same,"viability, T/C","second compound 0.0003 µM, first compound 3.16 µM",0.8%
same,"viability, T/C","second compound 0.0003 µM, first compound 10 µM",1.01%
same,"viability, T/C","second compound 0.000949 µM, first compound 0.0316 µM",0.83%
same,"viability, T/C","second compound 0.000949 µM, first compound 0.1 µM",0.71%
same,"viability, T/C","second compound 0.000949 µM, first compound 0.316 µM",0.61%
same,"viability, T/C","second compound 0.000949 µM, first compound 1 µM",0.65%
same,"viability, T/C","second compound 0.000949 µM, first compound 3.16 µM",0.74%
same,"viability, T/C","second compound 0.000949 µM, first compound 10 µM",0.72%
same,"viability, T/C",[1],0.21%
same,"viability, T/C",[2],0.21%
same,"viability, T/C",[3],0.19%
same,"viability, T/C",[4],0.19%
same,"viability, T/C",[5],0.19%
same,"viability, T/C",[6],0.23%
Cc1cc(C)c(CNC(=O)c2cc(-c3ccc(CN4CCOCC4)cc3)cc3c2cnn3C2CCCC2)c(=O)[nH]1 + CC[C@@]1(O)C(=O)OCc2c1cc1n(c2=O)Cc2cc3c(CN(C)C)c(O)ccc3nc2-1,IC50,second compound 0.003 µM,1890 nM
same,IC50,second compound 0.00949 µM,< 31.6 nM
same,IC50,second compound 0.03 µM,< 31.6 nM
same,IC50,second compound 0.0949 µM,< 31.6 nM
same,IC50,second compound 0.3 µM,< 31.6 nM
same,"viability, T/C",[1],83.3%
same,"viability, T/C",[2],78.6%
same,"viability, T/C",[3],74.2%
same,"viability, T/C",[4],58.4%
same,"viability, T/C",[5],42.8%
same,"viability, T/C",[6],24.6%
same,"viability, T/C","second compound 0.00949 µM, first compound 0.0316 µM",10.6%
same,"viability, T/C","second compound 0.00949 µM, first compound 0.1 µM",8.26%
same,"viability, T/C","second compound 0.00949 µM, first compound 0.316 µM",5.43%
same,"viability, T/C","second compound 0.00949 µM, first compound 1 µM",3.96%
same,"viability, T/C","second compound 0.00949 µM, first compound 3.16 µM",2.11%
same,"viability, T/C","second compound 0.00949 µM, first compound 10 µM",1.31%
same,"viability, T/C","second compound 0.03 µM, first compound 0.0316 µM",0.94%
same,"viability, T/C","second compound 0.03 µM, first compound 0.1 µM",1.14%
same,"viability, T/C","second compound 0.03 µM, first compound 0.316 µM",1.13%
same,"viability, T/C","second compound 0.03 µM, first compound 1 µM",0.98%
same,"viability, T/C","second compound 0.03 µM, first compound 3.16 µM",1.02%
same,"viability, T/C","second compound 0.03 µM, first compound 10 µM",0.92%
same,"viability, T/C","second compound 0.0949 µM, first compound 0.0316 µM",1.01%
same,"viability, T/C","second compound 0.0949 µM, first compound 0.1 µM",1.06%
same,"viability, T/C","second compound 0.0949 µM, first compound 0.316 µM",0.94%
same,"viability, T/C","second compound 0.0949 µM, first compound 1 µM",1.17%
same,"viability, T/C","second compound 0.0949 µM, first compound 3.16 µM",1.46%
same,"viability, T/C","second compound 0.0949 µM, first compound 10 µM",1.47%
same,"viability, T/C","second compound 0.3 µM, first compound 0.0316 µM",1.21%
same,"viability, T/C","second compound 0.3 µM, first compound 0.1 µM",1.42%
same,"viability, T/C","second compound 0.3 µM, first compound 0.316 µM",1.39%
same,"viability, T/C","second compound 0.3 µM, first compound 1 µM",1.4%
same,"viability, T/C","second compound 0.3 µM, first compound 3.16 µM",1.35%
same,"viability, T/C","second compound 0.3 µM, first compound 10 µM",1.52%
